Assays:
NIH3T3 healthy cell line = assay: MTT cytotoxicity assay (24 h), healthy cell line NIH3T3; format: cell-based; conditions: means of quartet assays
Protocol: (§1) The principle of the MTT test used to determine the metabolic activity of living cells is based on the reduction of […] 3-(4,5-dimethylthiazol-2-yl)-2,5 diphenyltetrazolium salt to the purple-colored formazan product. Thanks to this color change, the cell viability rate can be determined spectrometrically.[33]Table 1 presents the results of the MTT experiment performed with the 24 h procedure using two cancer lines (A549 and MCF-7) and a healthy cell line (NIH3T3). Doxorubicin is used as a reference drug. MTT assays were performed as previously described.[34]−[36]
(§2) Cytotoxicity assays of compounds 6a–6j were performed with the 24 h MTT procedure. […]. […] […]. […] The selectivity indexes of compounds 6d, 6g, and 6j were calculated as 2.3, 7.23, and 5.68, respectively. […] It can be predicted that the side effect and toxic effect profile of compound 6g will be less than that of compounds 6d and 6j.

A549 cell line = assay: MTT cytotoxicity assay (24 h), A549 cell line; format: cell-based; conditions: for SI for A549: selectivity index, NIH3T3 vs A549
Protocol: Thanks to this color change, the cell viability rate can be determined spectrometrically.[33]Table 1 presents the results of the MTT experiment performed with the 24 h procedure using two cancer lines (A549 and MCF-7) and a healthy cell line (NIH3T3). Doxorubicin is used as a reference drug. MTT assays were performed as previously described.[34]−[36] Cytotoxicity assays of compounds 6a–6j were performed with the 24 h MTT procedure. […] These compounds include allyl (6d), phenyl (6g), and 4-chlorophenyl (6j) moieties. […] The selectivity indexes of compounds 6d, 6g, and 6j were calculated as 2.3, 7.23, and 5.68, respectively. […] It can be predicted that the side effect and toxic effect profile of compound 6g will be less than that of compounds 6d and 6j.

MCF-7 cell line = assay: MTT cytotoxicity assay (24 h), MCF-7 cell line; format: cell-based; conditions: for IC50: MTT, 24 h, MCF-7 cell line, means of quartet assays; for SI for MCF-7: selectivity index, NIH3T3 vs MCF-7
Protocol: as §1, §2

A549 cells = assay: Mitochondrial membrane potential (MMP) by flow cytometry, JC-1 dye; format: cell-based; conditions: substance at IC50 concentration, 24 h incubation
Protocol: In the first step, A549 cells seeded in 25 mL flasks were incubated for 24 h in a 5% CO2 incubator. […] Cells were collected and centrifuged in line with the instructions in the kit at the conclusion of this period. The upper part was removed, JC-1 dye was added, and the mixture was incubated for 10–15 min at 37 °C. The CytoFLEX flow cytometer (Beckman Coulter Life Sciences, USA) and CytExpert for CytoFLEX Acquisition and Analysis Software Version 2.2.0.97 were used to read it after two washings with washing solution at the conclusion of the period.
Both the inhibitory compound and the reference drug were administered at IC50 concentrations. After a 24 h incubation period (5% CO2), mitochondrial membrane potential was determined by flow cytometry using JC-1 dye.

EGFR enzyme = biological target: T1, EGFR enzyme (Homo sapiens, UniProt P00533); assay: EGFR Kinase Assay Kit inhibition assay; format: biochemical; conditions: in vitro kit method
T1 construct: purchased
T1 sequence (P00533 25-1210): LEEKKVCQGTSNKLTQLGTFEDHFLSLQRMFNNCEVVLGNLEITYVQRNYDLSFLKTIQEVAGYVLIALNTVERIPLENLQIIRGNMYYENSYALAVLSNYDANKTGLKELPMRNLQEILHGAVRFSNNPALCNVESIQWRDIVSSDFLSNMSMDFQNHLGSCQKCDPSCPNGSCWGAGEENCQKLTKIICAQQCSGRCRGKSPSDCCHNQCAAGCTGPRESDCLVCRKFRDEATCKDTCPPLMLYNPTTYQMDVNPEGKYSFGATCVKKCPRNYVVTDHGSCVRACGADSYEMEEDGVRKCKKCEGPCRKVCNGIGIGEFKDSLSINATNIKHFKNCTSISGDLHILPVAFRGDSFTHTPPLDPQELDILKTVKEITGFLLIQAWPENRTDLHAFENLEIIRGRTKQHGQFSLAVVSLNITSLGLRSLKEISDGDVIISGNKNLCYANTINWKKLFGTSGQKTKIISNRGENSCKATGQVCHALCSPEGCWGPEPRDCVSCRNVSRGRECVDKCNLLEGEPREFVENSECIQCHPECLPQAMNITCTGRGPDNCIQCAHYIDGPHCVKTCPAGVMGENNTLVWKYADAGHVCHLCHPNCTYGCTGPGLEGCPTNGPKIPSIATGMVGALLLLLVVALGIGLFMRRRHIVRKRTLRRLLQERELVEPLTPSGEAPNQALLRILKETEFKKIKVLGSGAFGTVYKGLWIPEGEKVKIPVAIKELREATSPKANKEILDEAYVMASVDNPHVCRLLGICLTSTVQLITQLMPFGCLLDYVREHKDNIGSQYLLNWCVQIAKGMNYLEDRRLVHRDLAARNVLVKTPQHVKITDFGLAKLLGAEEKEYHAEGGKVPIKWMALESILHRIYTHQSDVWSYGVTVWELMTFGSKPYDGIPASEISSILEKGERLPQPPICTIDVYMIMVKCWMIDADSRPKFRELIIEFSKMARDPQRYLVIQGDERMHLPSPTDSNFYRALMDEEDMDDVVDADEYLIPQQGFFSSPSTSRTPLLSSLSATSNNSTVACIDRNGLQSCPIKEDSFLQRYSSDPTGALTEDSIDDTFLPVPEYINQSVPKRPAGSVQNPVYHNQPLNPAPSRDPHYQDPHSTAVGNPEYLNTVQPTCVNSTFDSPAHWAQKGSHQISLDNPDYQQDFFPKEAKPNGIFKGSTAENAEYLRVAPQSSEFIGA
Protocol: The EGFR Kinase Assay Kit (available from ref ([38])) was used for the EGFR inhibition. The kit protocol was followed, and the experiment was carried out in vitro.
EGFR kinase, which belongs to the ErbB family of tyrosine kinases, is known to regulate the signaling pathways of cell survival, migration, proliferation, differentiation, and adhesion.[52] Inhibition of this member of the tyrosine kinase family, which is a new approach in cancer chemotherapy, is important.

[1] = Homo sapiens, A549, 24 h, MTT, 24 h, A549 cell line, means of quartet assays
[2] = MTT, 24 h, A549 cell line, means of quartet assays

| IC50 (EGFR enzyme) [µM] | SMILES | IC50 (NIH3T3 healthy cell line; Mus musculus, NIH3T3, 24 h) [µM] | IC50 (A549 cell line; [1]) [µM] | SI for A549 (A549 cell line) | IC50 (MCF-7 cell line; Homo sapiens, MCF7, 24 h) [µM] | SI for MCF-7 (MCF-7 cell line) | mitochondrial membrane potential (P3) (A549 cells) [%] | IC50 (NIH3T3 healthy cell line) [µM] | IC50 (MCF-7 cell line) [µM] | IC50 (A549 cell line; [2]) [µM] | IC50 A549 (A549 cell line; [2]) |
| --- | --- | --- | --- | --- | --- | --- | --- | --- | --- | --- | --- |
| – | CC(C)Nc1nnc(SCC(=O)N2N=C(c3ccccc3)CC2c2ccc([N+](=O)[O-])cc2)s1 (stereo not drawn) [Compound 6c, 2-((5-(Isopropylamino)-1,3,4-thiadiazol-2-yl)thio)-1-(5-(4-nitrophenyl)-3-phenyl-4,5-dihydro-1H-pyrazol-1-yl)ethan-1-one] | 33.2 ± 2.37 | 27.9 ± 1.28 | 1.19 | > 100 | <0.33 | – | – | – | – | – |
| 0.024 ± 0.002 | O=C(CSc1nnc(Nc2ccccc2)s1)N1N=C(c2ccccc2)CC1c1ccc([N+](=O)[O-])cc1 (stereo not drawn) [Compound 6g, 1-(5-(4-Nitrophenyl)-3-phenyl-4,5-dihydro-1H-pyrazol-1-yl)-2-((5-(phenylamino)-1,3,4-thiadiazol-2-yl)thio)ethan-1-one] | 11.1 ± 0.205 | – | 7.22 | 15.93 ± 0.054 | 0.70 | 80.93 | 11.1 ± 0.21 | 15.93 ± 0.05 | – | – |
| – | C=CCNc1nnc(SCC(=O)N2N=C(c3ccccc3)CC2c2ccc([N+](=O)[O-])cc2)s1 (stereo not drawn) [Compound 6d, 2-((5-(Allylamino)-1,3,4-thiadiazol-2-yl)thio)-1-(5-(4-nitrophenyl)-3-phenyl-4,5-dihydro-1H-pyrazol-1-yl)ethan-1-one] | 11.9 ± 0.486 | 5.18 ± 0.164 | 2.3 | 35.7 ± 2.24 | 0.33 | – | 11.9 ± 0.49 | 35.7 ± 2.24 | 5.18 ± 0.16 | – |
| – | CCNc1nnc(SCC(=O)N2N=C(c3ccccc3)CC2c2ccc([N+](=O)[O-])cc2)s1 (stereo not drawn) [Compound 6a, 2-((5-(Ethylamino)-1,3,4-thiadiazol-2-yl)thio)-1-(5-(4-nitrophenyl)-3-phenyl-4,5-dihydro-1H-pyrazol-1-yl)ethan-1-one] | 86.7 ± 4.07 | 13.9 ± 0.25 | 6.24 | > 100 | <0.87 | – | – | – | – | – |
| – | CCCNc1nnc(SCC(=O)N2N=C(c3ccccc3)CC2c2ccc([N+](=O)[O-])cc2)s1 (stereo not drawn) [Compound 6b, 1-(5-(4-Nitrophenyl)-3-phenyl-4,5-dihydro-1H-pyrazol-1-yl)-2-((5-(propylamino)-1,3,4-thiadiazol-2-yl)thio)ethan-1-one] | 47.2 ± 4.53 | 15.8 ± 0.75 | – | 63.4 ± 2.09 | – | – | – | – | – | – |
| – | O=C(CSc1nnc(Nc2ccc(Cl)cc2)s1)N1N=C(c2ccccc2)CC1c1ccc([N+](=O)[O-])cc1 (stereo not drawn) [Compound 6j, 2-((5-((4-Chlorophenyl)amino)-1,3,4-thiadiazol-2-yl)thio)-1-(5-(4-nitrophenyl)-3-phenyl-4,5-dihydro-1H-pyrazol-1-yl)ethan-1-one] | 48.3 ± 1.72 | 8.49 ± 0.667 | 5.68 | 67.2 ± 3.63 | 0.72 | – | – | 67.2 ± 3.63 | 8.49 ± 0.67 | – |
| – | Cc1ccc(Nc2nnc(SCC(=O)N3N=C(c4ccccc4)CC3c3ccc([N+](=O)[O-])cc3)s2)cc1 (stereo not drawn) [Compound 6h, 1-(5-(4-Nitrophenyl)-3-phenyl-4,5-dihydro-1H-pyrazol-1-yl)-2-((5-(p-tolylamino)-1,3,4-thiadiazol-2-yl)thio)ethan-1-one] | > 100 | 29.1 ± 1.01 | >3.44 | 92.6 ± 1.89 | >1.08 | – | – | – | – | – |
| – | COc1ccc(Nc2nnc(SCC(=O)N3N=C(c4ccccc4)CC3c3ccc([N+](=O)[O-])cc3)s2)cc1 (stereo not drawn) [Compound 6i, 2-((5-((4-Methoxyphenyl)amino)-1,3,4-thiadiazol-2-yl)thio)-1-(5-(4-nitrophenyl)-3-phenyl-4,5-dihydro-1H-pyrazol-1-yl)ethan-1-one] | > 100 | 16.6 ± 0.21 | >6.01 | > 100 | – | – | – | – | – | – |
| – | O=C(CSc1nnc(NC2CCCCC2)s1)N1N=C(c2ccccc2)CC1c1ccc([N+](=O)[O-])cc1 (stereo not drawn) [Compound 6f, 2-((5-(Cyclohexylamino)-1,3,4-thiadiazol-2-yl)thio)-1-(5-(4-nitrophenyl)-3-phenyl-4,5-dihydro-1H-pyrazol-1-yl)ethan-1-one] | 60.5 ± 3.72 | > 100 | <0.61 | > 100 | <0.61 | – | – | – | – | no activity |
| – | COc1cccc2c1C(=O)c1c(O)c3c(c(O)c1C2=O)C[C@@](O)(C(=O)CO)C[C@@H]3O[C@H]1C[C@H](N)[C@H](O)[C@H](C)O1 [doxorubicin, reference compound] | > 1000 | 2.67 ± 0.12 | >374.95 | 1.59 ± 0.1 | >629.33 | 30.27 | – | – | – | – |

— article PMC10468883, “Synthesis and Anticancer Activities of Pyrazole–Thiadiazole-Based EGFR Inhibitors” (ACS Omega, 2023)
